Data on 18 compounds can be found in patent EP0111607A1, “Tropyl and pseudotropyl alkyl-benzoates and their use in migraine treatment” (MERRELL TORAUDE ET COMPAGNIE, priority 1982, dated 1984).

Read-outs that look alike come from different tables or passages of the source.

For experiment [1], the target named is T1, 5-HT M-receptor (Oryctolagus cuniculus, UniProt G1TUQ4).
T1 sequence (G1TUQ4 24-513): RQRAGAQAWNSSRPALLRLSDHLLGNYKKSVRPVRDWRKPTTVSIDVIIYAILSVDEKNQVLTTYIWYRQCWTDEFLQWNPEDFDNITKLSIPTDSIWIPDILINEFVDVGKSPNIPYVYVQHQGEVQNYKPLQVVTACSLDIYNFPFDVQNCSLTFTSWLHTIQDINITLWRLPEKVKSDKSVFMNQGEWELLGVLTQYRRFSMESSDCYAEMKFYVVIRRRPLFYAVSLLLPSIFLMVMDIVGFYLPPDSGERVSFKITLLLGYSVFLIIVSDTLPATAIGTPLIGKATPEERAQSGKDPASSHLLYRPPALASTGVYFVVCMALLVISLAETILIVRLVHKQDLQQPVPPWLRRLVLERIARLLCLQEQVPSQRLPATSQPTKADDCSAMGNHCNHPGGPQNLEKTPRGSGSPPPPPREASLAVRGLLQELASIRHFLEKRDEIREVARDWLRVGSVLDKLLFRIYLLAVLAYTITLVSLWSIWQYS
To be noted: 5-HT M-receptor antagonism, cited from earlier work.

The target of experiment [2] is T1, 5-HT M-receptor. Nature of the experiment: pA2 against 5-HT in the isolated rabbit heart. The procedure:
The activity of the compounds against 5-HT can be assessed by determining their pA2 values in the isolated rabbit heart as described by Fozard et at Europ. J. Pharmacol. 59, 195-210 (1979). In the method described the molar concentration of antagonist which reduces the effects of twice the ED50 of 5-HT to that of the ED50 in the absence of antagonist is determined. The pA2 value is the negative logarithm of said molar concentrations.

The mark [3] stands for this setting: reported by Fozard et al., Eur. J. Pharmacol. 59(1979) and 49(1978), same procedure.
The mark [4] stands for this setting: Table II, representative compounds of Formula I.
Where [5] appears, read: Table III, related compounds for comparative purposes.
Where [6] appears, read: tests referred to with European Patent Application No. 82401060.7.

The pA2 is a measure of antagonist potency on a negative log scale. With `CCN(CC)CCNC(=O)c1cc(Cl)c(N)cc1OC` [metoclopramide], at 5-HT M-receptor [1] (setting [3]), the pA2 is given as 7.2.

With `COC(=O)[C@H]1[C@@H](OC(=O)c2ccccc2)C[C@@H]2CC[C@H]1N2` [nor(-)cocaine], the pA2 on 5-HT M-receptor [1] (setting [3]) is recorded as 7.7. On to `Cc1cc(C)cc(C(=O)OC2CC3CCC(C2)N3C)c1` (stereo not drawn) [pseudotropyl 3,5-dimethylbenzoate, 3,5-DIMETHYL-BENZOIC ACID EXO-8-METHYL-8-AZABICYCLO[3,2,1]OCT-3-YL ESTER], for which the “pA2 5-HT” value on 5-HT M-receptor [2] (setting [4]) was determined as 8.9. For `CN1C2CCC1CC(OC(=O)c1ccccc1)C2` (stereo not shown) [pseudotropyl benzoate], at 5-HT M-receptor [2] (setting [5]), the “pA2 5-HT” value is 7.0. The pA2 on 5-HT M-receptor [1] (setting [3]) is 7.0. As for `COc1cc(C(=O)OC2CC3CCC(C2)N3C)cc(OC)c1OC` (stereo not shown) [pseudotropyl-3,4,5-trimethoxybenzoate], the pA2 on 5-HT M-receptor [1] (setting [6]) is given as 5.7. Regarding `CN1C2CCC1CC(OC(=O)c1ccc(Cl)c(Cl)c1)C2` (stereo not shown) [pseudotropyl-3,4-dichlorobenzoate], at 5-HT M-receptor [2] (setting [5]), the “pA2 5-HT” value is listed as 7.5. For the compound `COc1cc(OC)cc(C(=O)OC2CC3CCC(C2)N3C)c1` (stereo not shown) [pseudotropyl-3,5-dimethoxybenzoate], the pA2 on 5-HT M-receptor [1] (setting [6]) was 6.6. Take `CN1C2CCC1CC(OC(=O)c1ccc(Cl)cc1)C2` (stereo not shown) [pseudotropyl-4-chlorobenzoate]: at 5-HT M-receptor [2] (setting [5]), the “pA2 5-HT” value is given as 6.7. Take `Cc1ccc(C(=O)OC2CC3CCC(C2)N3C)c(C)c1` (stereo not shown) [tropyl 2,4-dimethylbenzoate]: the “pA2 5-HT” value at 5-HT M-receptor [2] (setting [4]) is listed as 8.8. As to `Cc1ccc(C)c(C(=O)OC2CC3CCC(C2)N3C)c1` (stereo not shown) [tropyl 2,5-dimethylbenzoate], the “pA2 5-HT” value at 5-HT M-receptor [2] (setting [4]) came to 8.6. Turning to `Cc1ccccc1C(=O)OC1CC2CCC(C1)N2C` (stereo not shown) [tropyl 2-methylbenzoate], at 5-HT M-receptor [2] (setting [4]), the “pA2 5-HT” value is 8.1. Turning to `COc1ccc(C(=O)O[C@H]2C[C@H]3CC[C@@H](C2)N3C)cc1OC` [tropyl 3,4-dimethoxybenzoate], the pA2 on 5-HT M-receptor [1] (setting [6]) is on record as 7.2. For the compound `Cc1ccc(C(=O)OC2CC3CCC(C2)N3C)cc1C` (stereo not drawn) [tropyl 3,4-dimethylbenzoate, 3,4-DIMET[…] ENDO-8-METHYL-8-AZABICYCLO[3,2,1]OCT-3-YL ESTER], the “pA2 5-HT” value on 5-HT M-receptor [2] (setting [4]) turned out to be 8.2. In the case of `Cc1cccc(C(=O)OC2CC3CCC(C2)N3C)c1` (stereo not shown) [tropyl 3-methylbenzoate], the “pA2 5-HT” value on 5-HT M-receptor [2] (setting [5]) is on record as 8.1.

As for `CN1C2CCC1CC(OC(=O)c1ccc(Cl)cc1)C2` (stereo not shown) [tropyl 4-chlorobenzoate], the pA2 at 5-HT M-receptor [1] (setting [6]) is 7.0. Turning to `Cc1ccc(C(=O)O[C@H]2C[C@H]3CC[C@@H](C2)N3C)cc1` [tropyl 4-methylbenzoate], the pA2 on 5-HT M-receptor [1] (setting [6]) is recorded as 7.8. Take `CN1[C@@H]2CC[C@H]1C[C@@H](OC(=O)c1ccccc1)C2` [tropyl benzoate]: on 5-HT M-receptor [1] (setting [3]), the pA2 is reported as 7.2. `CN1C2CCC1CC(OC(=O)c1ccc(Cl)c(Cl)c1)C2` (stereo not shown) [tropyl-3,4-dichlorobenzoate]: the pA2 at 5-HT M-receptor [1] (setting [6]) is 7.8.
